Measured values: patent US20250382251A1, “ALDEHYDE COMPOSITION” (MITSUBISHI GAS CHEMICAL COMPANY, INC., priority 2022, published 2025)

Key:
[1] = system: Bhas42 cells; assay: Carcinogenicity prediction test (transformation test, OECD 231GD); format: cell-based; conditions: in vitro transformation test using Bhas42 cells, negative or positive
Method: Using the aldehyde compositions obtained in Examples and Lilial (3-(p-tert-butylphenyl)-2-methylpropanal), a transformation test (an in vitro carcinogenicity prediction test using Bhas42 cells) was performed based on OECD 231GD to determine whether the carcinogenicity was negative or positive. When the result of this test is negative, it is predicted that there is no possibility of causing carcinogenicity, and safety is high.

[2] = Evaluation of threshold of smell; conditions: diluted with dipropylene glycol, 10 to 0.001 ppm; lower limit concentration at which the smell can be identified

## CC(C=O)Cc1ccc(C(C)(C)C)cc1 (centres unmarked) [Comparative Example 2, 3-(p-tert-butylphenyl)-2-methylpropanal]
[1]
  Carcinogenicity prediction test: Positive
[2]
  Threshold of smell (ppm): 1 ppm
